Reference: patent US20100267561A1, “HERBICIDAL PYRIDAZINONE DERIVATIVES” (priority 2007, published 2010)

Assays:
Assay in all cases: Test B pre-/postemergence plant response
Type in all cases: in vivo
[1] = tested on: Italian ryegrass (Lolium multiflorum)
Source text: (§1) Seeds of plant species selected from blackgrass (Alopecurus myosuroides), downy bromegrass (Bromus tectorum), green foxtail (Setaria viridis), Italian ryegrass (Lolium multiflorum), wheat (Triticum aestivum), wild oat (Avena fatua), catchweed bedstraw (Galium aparine), bermudagrass (Cynodon dactylon), surinam grass (Brachiaria decumbens), cocklebur (Xanthium strumarium), corn (Zea mays), large crabgrass (Digitaria sanguinalis), woolly cupgrass (Eriochloa villosa), giant foxtail (Setaria faberii), goosegrass (Eleusine indica), johnsongrass (Sorghum halepense), kochia (Kochia scoparia), lambsquarters (Chenopodium album), morningglory (Ipomoea coccinea), eastern black (E.B.) nightshade (Solanum ptycanthum), yellow nutsedge (Cyperus esculentus), pigweed (Amaranthus retroflexus), common ragweed (Ambrosia elation), Russian thistle (Salsola iberica), soybean (Glycine max), common (oilseed) sunflower (Helianthus annuus), and velvetleaf (Abutilon theophrasti) were planted and treated preemergence with test chemicals formulated in a non-phytotoxic solvent mixture which included a surfactant.
(§2) At the same time, plants selected from these crop and weed species and also winter barley (Hordeum vulgare), canarygrass (Phalaris minor), chickweed (Stellaria media) and windgrass (Apera spica-venti) were treated with postemergence applications of some of the test chemicals formulated in the same manner. Plants ranged in height from 2 to 18 cm (1- to 4-leaf stage) for postemergence treatments.
(§3) Plant species in the flooded paddy test consisted of rice (Oryza sativa), umbrella sedge (Cyperus difformis), ducksalad (Heteranthera limosa) and barnyardgrass (Echinochloa crus-galli) grown to the 2-leaf stage for testing. At time of treatment, test pots were flooded to 3 cm above the soil surface, treated by application of test compounds directly to the paddy water, and then maintained at that water depth for the duration of the test. Treated plants and controls were maintained in a greenhouse for 13 to 15 days, after which time all species were compared to controls and visually evaluated. Plant response ratings, summarized in Table B, are based on a scale of 0 to 100 where 0 is no effect and 100 is complete control. A dash (-) response means no test result.

[2] = tested on: morningglory (Ipomoea coccinea)
Source text: as §1, §2, §3

kochia (Kochia scoparia) = tested on: kochia (Kochia scoparia)
Source text: as §1, §2, §3

[3] = tested on: eastern black (E.B.) nightshade (Solanum ptycanthum); details: Preemergence
Source text: as §1, §2, §3

[4] = tested on: velvetleaf (Abutilon theophrasti)
Source text: as §1, §2, §3

[5] = tested on: woolly cupgrass (Eriochloa villosa)
Source text: as §1, §2, §3

[6] = tested on: bermudagrass (Cynodon dactylon)
Source text: as §1, §2, §3

[7] = tested on: surinam grass (Brachiaria decumbens)
Source text: as §1, §2, §3

[8] = tested on: green foxtail (Setaria viridis)
Source text: as §1, §2, §3

corn (Zea mays) = tested on: corn (Zea mays)
Source text: as §1, §2, §3

[9] = tested on: downy bromegrass (Bromus tectorum)
Source text: as §1, §2, §3

[10] = tested on: pigweed (Amaranthus retroflexus)
Source text: as §1, §2, §3

soybean (Glycine max) = tested on: soybean (Glycine max)
Source text: as §1, §2, §3

[11] = Postemergence, 31 g ai/ha, scale 0 to 100, 0 no effect, 100 complete control
[12] = Postemergence, 62 g ai/ha, scale 0 to 100
[13] = Postemergence, 125 g ai/ha, scale 0 to 100
[14] = Postemergence, 250 g ai/ha, scale 0 to 100
[15] = Preemergence, 31 g ai/ha, 0 to 100 scale, 0 no effect, 100 complete control
[16] = Preemergence, 62 g ai/ha, scale 0 to 100
[17] = Preemergence, 125 g ai/ha, scale 0 to 100
[18] = Preemergence, 250 g ai/ha, scale 0 to 100

4-[3-(4-chlorophenyl)-5-methyl-1H-pyrazol-3-yl]-5-hydroxy-2-methyl-3(2H)-pyridazinone [Compound 3]
Plant response rating, Ryegrass, Italian [1, 11]: 95 | Plant response rating, Ryegrass, Italian [1, 12]: 100 | Plant response rating, Ryegrass, Italian [1, 13]: 100 | Plant response rating, Ryegrass, Italian [1, 14]: 100 | Plant response rating, Ryegrass, Italian [1, 15]: 98 | Plant response rating, Ryegrass, Italian [1, 16]: 100 | Plant response rating, Ryegrass, Italian [1, 17]: 100 | Plant response rating, Ryegrass, Italian [1, 18]: 100 | Plant response rating, Morningglory [2, 11]: 0 | Plant response rating, Morningglory [2, 12]: 0 | Plant response rating, Morningglory [2, 13]: 0 | Plant response rating, Morningglory [2, 14]: 0 | Plant response rating, Morningglory [2, 15]: 0 | Plant response rating, Morningglory [2, 16]: 0 | Plant response rating, Morningglory [2, 17]: 0 | Plant response rating, Morningglory [2, 18]: 0 | Plant response rating, Kochia (kochia (Kochia scoparia); [11]): 0 | Plant response rating, Kochia (kochia (Kochia scoparia); [12]): 0 | Plant response rating, Kochia (kochia (Kochia scoparia); [13]): 60 | Plant response rating, Kochia (kochia (Kochia scoparia); [14]): 70 | Plant response rating, Kochia (kochia (Kochia scoparia); [15]): 0 | Plant response rating, Kochia (kochia (Kochia scoparia); [17]): 30 | Plant response rating, Kochia (kochia (Kochia scoparia); [18]): 30 | Plant response rating, Nightshade, E. B. ([3]; 31 g ai/ha, 0 to 100 scale, 0 no effect, 100 complete control): 90 | Plant response rating, Nightshade, E. B. ([3]; 62 g ai/ha, scale 0 to 100): 100 | Plant response rating, Nightshade, E. B. ([3]; 125 g ai/ha, scale 0 to 100): 100 | Plant response rating, Nightshade, E. B. ([3]; 250 g ai/ha, scale 0 to 100): 100 | Plant response rating, Velvetleaf [4, 11]: 0 | Plant response rating, Velvetleaf [4, 12]: 0 | Plant response rating, Velvetleaf [4, 13]: 0 | Plant response rating, Velvetleaf [4, 14]: 0 | Plant response rating, Velvetleaf [4, 15]: 0 | Plant response rating, Velvetleaf [4, 16]: 0 | Plant response rating, Velvetleaf [4, 17]: 0 | Plant response rating, Velvetleaf [4, 18]: 20 | Plant response rating, Cupgrass, Woolly [5, 11]: 100 | Plant response rating, Cupgrass, Woolly [5, 12]: 100 | Plant response rating, Cupgrass, Woolly [5, 13]: 100 | Plant response rating, Cupgrass, Woolly [5, 14]: 100 | Plant response rating, Cupgrass, Woolly [5, 15]: 50 | Plant response rating, Cupgrass, Woolly [5, 16]: 50 | Plant response rating, Cupgrass, Woolly [5, 17]: 90 | Plant response rating, Cupgrass, Woolly [5, 18]: 100 | Bermudagrass plant response rating ([6]; 250 g ai/ha, preemergence, 0-100 scale): 100 | Plant response rating, Bermudagrass [6, 11]: 100 | Plant response rating, Bermudagrass [6, 12]: 100 | Plant response rating, Bermudagrass [6, 13]: 100 | Plant response rating, Bermudagrass [6, 14]: 100 | Plant response rating, Bermudagrass [6, 15]: 30 | Plant response rating, Bermudagrass [6, 16]: 100 | Plant response rating, Bermudagrass [6, 17]: 100 | Plant response rating, Surinam Grass [7, 11]: 100 | Plant response rating, Surinam Grass [7, 12]: 100 | Plant response rating, Surinam Grass [7, 13]: 100 | Plant response rating, Surinam Grass [7, 14]: 100 | Plant response rating, Surinam Grass [7, 15]: 100 | Plant response rating, Surinam Grass [7, 16]: 100 | Plant response rating, Surinam Grass [7, 17]: 100 | Plant response rating, Surinam Grass [7, 18]: 100 | Plant response rating, Foxtail, Green [8, 11]: 90 | Plant response rating, Foxtail, Green [8, 12]: 100 | Plant response rating, Foxtail, Green [8, 13]: 100 | Plant response rating, Foxtail, Green [8, 14]: 100 | Plant response rating, Foxtail, Green [8, 15]: 100 | Plant response rating, Foxtail, Green [8, 16]: 100 | Plant response rating, Foxtail, Green [8, 17]: 100 | Plant response rating, Foxtail, Green [8, 18]: 100 | Plant response rating, Corn (corn (Zea mays); [11]): 100 | Plant response rating, Corn (corn (Zea mays); [12]): 100 | Plant response rating, Corn (corn (Zea mays); [13]): 100 | Plant response rating, Corn (corn (Zea mays); [14]): 100 | Plant response rating, Corn (corn (Zea mays); [15]): 95 | Plant response rating, Corn (corn (Zea mays); [16]): 95 | Plant response rating, Corn (corn (Zea mays); [17]): 95 | Plant response rating, Corn (corn (Zea mays); [18]): 98 | Plant response rating, Bromegrass, Downy [9, 11]: 5 | Plant response rating, Bromegrass, Downy [9, 12]: 5 | Plant response rating, Bromegrass, Downy [9, 13]: 5 | Plant response rating, Bromegrass, Downy [9, 14]: 5 | Plant response rating, Bromegrass, Downy [9, 15]: 50 | Plant response rating, Bromegrass, Downy [9, 16]: 60 | Plant response rating, Bromegrass, Downy [9, 17]: 95 | Plant response rating, Bromegrass, Downy ([9]; Preemergence, 250 g ai/ha, scale 0 to 100 (0 no effect, 100 complete control)): 98 | Plant response rating, Pigweed [10, 11]: 0 | Plant response rating, Pigweed [10, 12]: 0 | Plant response rating, Pigweed [10, 13]: 10 | Plant response rating, Pigweed [10, 14]: 25 | Plant response rating, Pigweed [10, 15]: 0 | Plant response rating, Pigweed [10, 16]: 90 | Plant response rating, Pigweed [10, 17]: 90 | Plant response rating, Pigweed [10, 18]: 90 | Plant response rating, Soybean (soybean (Glycine max); [11]): 0 | Plant response rating, Soybean (soybean (Glycine max); [12]): 40 | Plant response rating, Soybean (soybean (Glycine max); [13]): 40 | Plant response rating, Soybean (soybean (Glycine max); [14]): 60 | Plant response rating, Soybean (soybean (Glycine max); [15]): 0 | Plant response rating, Soybean (soybean (Glycine max); [16]): 0 | Plant response rating, Soybean (soybean (Glycine max); [17]): 0 | Plant response rating, Soybean (soybean (Glycine max); [18]): 0
